The results in this text go back to PubChem BioAssay AID1645866 (Buhrlage Lab, Dana-Farber Cancer Institute and Novartis …, 2021).

A word on the IC50: it is the point on the concentration scale where inhibition reaches its midpoint. Broadly, the pIC50 is −log10 of the IC50, conventionally taken in molar units.

pIC50: −log10 of the molar value. Calls of active or inactive are those of the source.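 Rule for the calls: active = in confirmatory dose-response testing, peak deubiquitinase inhibition of 30% or more; inactive = the rest.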

Chain of Ubiquitin carboxyl-terminal hydrolase 28 (Homo sapiens) (Q96RU2 whole entry, looked up): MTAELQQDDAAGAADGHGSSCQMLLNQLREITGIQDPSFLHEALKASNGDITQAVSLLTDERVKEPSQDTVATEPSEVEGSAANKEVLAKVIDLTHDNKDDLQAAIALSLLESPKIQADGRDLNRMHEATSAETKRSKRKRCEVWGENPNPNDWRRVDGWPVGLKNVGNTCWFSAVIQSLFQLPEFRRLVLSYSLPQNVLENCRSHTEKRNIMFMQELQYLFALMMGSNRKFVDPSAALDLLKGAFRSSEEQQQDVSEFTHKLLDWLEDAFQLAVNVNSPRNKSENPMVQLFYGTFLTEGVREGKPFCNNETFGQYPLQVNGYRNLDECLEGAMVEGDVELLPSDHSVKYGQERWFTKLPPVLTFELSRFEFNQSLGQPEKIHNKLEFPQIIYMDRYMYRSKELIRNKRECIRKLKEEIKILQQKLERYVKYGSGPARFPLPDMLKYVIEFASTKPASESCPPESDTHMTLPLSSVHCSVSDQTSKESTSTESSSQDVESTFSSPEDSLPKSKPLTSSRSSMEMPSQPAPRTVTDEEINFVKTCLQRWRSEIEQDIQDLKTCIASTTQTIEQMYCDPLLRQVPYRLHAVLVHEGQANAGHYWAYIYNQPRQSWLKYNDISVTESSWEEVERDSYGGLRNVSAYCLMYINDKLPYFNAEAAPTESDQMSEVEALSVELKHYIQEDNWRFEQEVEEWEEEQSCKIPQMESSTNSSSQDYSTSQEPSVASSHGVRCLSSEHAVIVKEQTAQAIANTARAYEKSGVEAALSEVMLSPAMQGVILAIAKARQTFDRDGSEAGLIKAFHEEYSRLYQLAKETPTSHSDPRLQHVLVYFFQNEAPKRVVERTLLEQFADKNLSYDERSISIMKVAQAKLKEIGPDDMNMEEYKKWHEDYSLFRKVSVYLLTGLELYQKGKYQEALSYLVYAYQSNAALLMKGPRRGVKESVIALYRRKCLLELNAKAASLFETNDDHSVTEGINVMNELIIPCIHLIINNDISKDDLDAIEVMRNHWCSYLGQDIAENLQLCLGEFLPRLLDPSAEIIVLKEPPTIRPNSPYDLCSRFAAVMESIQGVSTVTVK

The test has as its target Ubiquitin carboxyl-terminal hydrolase 28 (Homo sapiens) (UniProt Q96RU2). Put plainly: Ubiquitin-specific peptidase 28 DUB inhibitors, biochemical concentration-dependence assay, validation of primary screening hits (AID 1645866). To be noted: purified USP28, ubiquitin-rhodamine fluorescence, 30 min.
As for `Cc1ccccc1NC(=O)Cn1cc(-c2nc(C3CC3)no2)ccc1=O`, the IC50 was > 50 µM (inactive).
For `Cc1nc(SCC(=O)Nc2cc(Cl)ccc2C)c2oc3ccccc3c2n1`, the pIC50 is 5.69.
The same measure, in the same setting: as for `COc1ccccc1CNC(=O)c1ccc(CSc2nc3ccncc3n2Cc2ccccc2)cc1`, the figure is 4.51; as for `Cc1cccc(Cl)c1NC(=O)Nc1ccc(NC(=O)c2ccccc2O)cc1`, 4.57; as for `COc1ccccc1C(=O)N1CCC(S(=O)(=O)c2ccc(-c3ccco3)cc2)CC1`, 4.37.
With `O=C(NCc1ccc(-c2nc3cnccc3o2)cc1)c1ccccc1Br`, the IC50 is > 50 µM (inactive).
For `Cc1cc2nc(-c3ccc(SCc4ccccn4)nc3)[nH]c2cc1C`, the pIC50 was 4.90.
On the same count and under the same terms, as for `COc1ccc(NC(=O)c2nnn(-c3cccc(C)c3)c2C)cc1`, the figure is 4.58; as for `COc1ccc(COC(=O)C2=C(C)NC(=O)CC2c2cccc([N+](=O)[O-])c2)cc1` (centres undefined), 5.51.
The same measure, in the same setting: as for `COc1cc(C)cc2c1C(=O)c1c(cc(O)c(Cl)c1O)C2=O`, the figure is 5.83.
For the molecule `CC(=O)NCc1nc(-c2ccc3c(c2)nc(C)c(=O)n3C2CCCC2)no1`, the IC50 was > 50 µM (inactive).
On the same count and under the same terms, as for `Nc1ccccc1SC(CC(=O)c1ccc(Cl)cc1)c1ccsc1` (centres undefined), the figure is > 50 µM (inactive).
For `Cc1ccc(NC(=O)c2nnn(-c3ccccc3)n2)cc1F`, the pIC50 was 4.70.
The same measure, in the same setting: as for `O=C(Nc1ccccc1)C1CCCN(C(=O)c2cc3ccccc3[nH]2)C1` (centres undefined), the figure is 4.41.
Consider `Cc1ccc(CNC(=O)Cn2c(=O)n(-c3ccccc3)c3ncccc32)cc1`, for which the IC50 is > 50 µM (inactive).
On the same count and under the same terms, as for `Cc1cccc(NC(=O)Cn2c(-c3cnccn3)nc(C)c(C)c2=O)c1C`, the figure is > 50 µM (inactive).
As to `CC(=O)c1oc2nc3c(c(-c4ccc(Cl)cc4)c2c1N)CCc1ccccc1-3`, the IC50 was > 50 µM (inactive).
In the case of `O=C(Nc1cccc(-c2noc(C3CCC3)n2)c1)C1CC(=O)N(c2ccccc2)C1` (centres undefined), the pIC50 is 4.73.
Consider `COCCCn1c(C(=O)Nc2ccccc2OC)cc2c(=O)n3ccccc3nc21`, for which the pIC50 is 4.52.
For `Cc1ccccc1NC(=O)c1ccc(N2CCCCC2)nn1`, the IC50 was > 50 µM (inactive).
As to `N#Cc1ccc(Cl)cc1NC(=O)COc1cccnc1[N+](=O)[O-]`, the pIC50 is 4.30.
Same read-out and setting: as for `Cc1c(C)n(-c2ccccc2)c2ncn(CC(=O)NC(C)c3ccccc3)c(=O)c12` (centres undefined), the figure is 4.78; as for `O=C(Cc1noc2ccccc12)NCC(=O)Nc1ccc(Cl)cc1`, 4.74; as for `COc1ccc(NC(=O)CC(=O)c2ccc([N+](=O)[O-])cc2)cc1S(=O)(=O)Nc1ccc(Br)cc1`, 4.55.
On the same count and under the same terms, as for `Cc1ccc(C(=O)Nc2ccc3c(c2)C(=O)N(C)c2ccccc2O3)cc1C`, the figure is 5.56; as for `Cc1cnnn1-c1ccc(C(=O)Nc2ccc(Cl)cc2)cc1`, 4.69; as for `COc1ccc(CNC(=O)CSc2nc3nc(C)ccc3o2)cc1`, 4.51.
Regarding `Cc1nc(CN2CCn3c(Cn4cccn4)cnc3C2C)cs1` (centres undefined), the IC50 was > 50 µM (inactive).
With `Nc1c(-c2nc(-c3ccc4c(c3)OCO4)cs2)nnn1-c1ccccc1`, the pIC50 is 4.51.
On the same count and under the same terms, as for `CC(=O)Nc1ccc(-n2cnc(C(=O)NCc3ccc(C)cc3)c2)nc1`, the figure is 4.72.
The same measure, in the same setting: as for `Cc1ccc2[nH]cc(S(=O)(=O)c3ccc(C)c(F)c3)c(=O)c2c1`, the figure is 4.70.
On the same count and under the same terms, as for `O=C(COC(=O)Cn1cnc2ccccc21)Nc1ccc2c(c1)OCCO2`, the figure is 4.53.
Take `COc1ccc(S(=O)(=O)N(C)Cc2cccs2)cc1OC`: the pIC50 was 4.76.
Regarding `COc1ccccc1-c1nc2c3c(ncn2n1)Oc1c(c(C)nn1-c1ccccc1)C3c1cccnc1` (centres undefined), the pIC50 is 4.39.
Regarding `O=C(NCc1ccc(F)cc1)N1CCC2(C1)Nc1cccnc1NC2=NCc1ccccc1` (centres undefined), the IC50 was > 50 µM (inactive).
On the same count and under the same terms, as for `COc1ccc(C2C(C(=O)C(C)(C)C)N3c4ccccc4C=CC3C23C(=O)c2ccccc2C3=O)c(OC)c1` (centres undefined), the figure is > 50 µM (inactive).
Regarding `Cc1nn(C)c2c1[C@@H](c1ccc(F)cc1)[C@H](NC(=O)c1ccccc1)C(=O)N2`, the pIC50 was 4.80.
Still for that read-out and setting: as for `CC(=O)c1ccc(NC(=O)CSc2nc(-c3ccccc3)nc3c2COC(C)(C)C3)cc1`, the figure is 5.39; as for `CCC(=O)Nc1ccccc1-c1nc2ccccc2n(CC(=O)Nc2cc(OC)ccc2OC)c1=O`, 4.86.
On the same count and under the same terms, as for `CN(C)c1cccc(C(=O)Nc2cc(-c3cccnc3)no2)c1`, the figure is 4.87; as for `CSc1cccc(NC(=O)COc2cccc3ccccc23)c1`, 5.59.
On the same count and under the same terms, as for `O=C(CCc1ccc(S(=O)(=O)N2CCOCC2)cc1)Nc1ccc2c(c1)OCCO2`, the figure is 4.88; as for `COc1ccc(C2/C(=C(\O)c3ccccc3)C(=O)C(=O)N2c2nc3ccc(F)cc3s2)cc1` (centres undefined), 4.67.
On to `CC(=O)N1CCc2cc(S(=O)(=O)NCc3ccc(C)cc3)ccc21`, for which the IC50 is > 50 µM (inactive).
On the same count and under the same terms, as for `Cc1ccc(-c2nc(Cn3nnc(-c4nc(-c5ccccn5)no4)c3C)c(C)o2)cc1`, the figure is > 50 µM (inactive).
As for `COc1cccc(C(=O)Nc2ccc(-n3cnnn3)cc2)c1`, the pIC50 is 4.66.
The same measure, in the same setting: as for `CC1=C(C)C(N(c2ccccc2)c2ccccc2)N(CCC(C)C)C1=O` (centres undefined), the figure is 4.60.
As to `COc1ccc(CC(=O)NCc2ccc3[nH]c(C)cc3c2)cc1`, the IC50 is > 50 µM (inactive).
Still for that read-out and setting: as for `O=C(CCC1CCCCC1)Nc1ccccc1C(=O)N1CCOCC1`, the figure is > 50 µM (inactive); as for `CCCNc1cc(-c2ccccc2)nc2nc(-c3cccnc3)nn12`, > 50 µM (inactive).
For the molecule `CNC(=O)c1cc2nc(N(C)C)n(-c3ccccc3)c2s1`, the pIC50 is 4.57.
On the same count and under the same terms, as for `Cc1cc2nc(/C=C/c3ccccc3)n(Cc3cccc(F)c3)c2cc1C`, the figure is 5.31.
Same read-out and setting: as for `CCOC(=O)c1cccc(NC(=O)Nc2cccn3nc(C)nc23)c1`, the figure is 6.12.
With `COc1cc2c(cc1OC)C(COc1ccccc1OC)N(C(=O)c1ccc3ccccc3c1)CC2` (centres undefined), the IC50 is > 50 µM (inactive).
With `CC(C)(C)C(=O)C1C2C(=O)N(c3ccc4c(c3)OCO4)C(=O)C2C2c3ccccc3C=CN12` (centres undefined), the IC50 is > 50 µM (inactive).
For `NS(=O)(=O)c1cccc(NS(=O)(=O)c2ccc(/C=C/C(=O)OCC(=O)c3ccc(Br)cc3)cc2)c1`, the IC50 is > 50 µM (inactive).
With `COc1cccc(NC(=O)c2ccc(-c3csc(C)n3)cc2)c1`, the pIC50 is 5.17.
On to `CCc1c(Cl)c(O)c(Cl)c(O)c1C(=O)O[C@H]1C(C)O[C@@H](OC/C2=C\C=C\CC(O)/C(C)=C/C(CC)C(O[C@@H]3OC(C)(C)[C@H](O)C(OC(=O)C(C)C)[C@@H]3O)/C(C)=C/C(C)=C/CC(C(C)O)OC2=O)[C@@H](OC)C1O` (some centres undefined), for which the IC50 is > 50 µM (inactive).
Regarding `O=C(c1nnn(Cc2ccc(Cl)cc2)c1-n1cccc1)N1CCCC1`, the pIC50 was 5.22.
Still for that read-out and setting: as for `CC(C)Cc1nc2sc3c(NCCN4CCOCC4)ncnc3c2c2c1CCC2`, the figure is 6.08.
Still for that read-out and setting: as for `Cc1cccc(NC(=O)CSc2nnc(-c3n[nH]c4c3CCC4)n2N)c1C`, the figure is 4.75; as for `Nc1ncnc2c1ncn2[C@@H]1O[C@H](CO)C[C@@H]1O`, 4.58.
On to `CCCCNC(=O)C1Sc2nnc(-c3ccccc3)n2NC1c1ccccc1` (centres undefined), for which the pIC50 is 4.74.
With `O=C(c1ccc(COc2cccc3ccccc23)o1)N1CCC(Cc2ccccc2)CC1`, the IC50 was > 50 µM (inactive).
